This passage reports IC50 results from patent US11905281B2 (Amgen Inc., priority 2017, dated 2024).

GDP-bound KRAS protein (aa 1-169), containing both G12C and C118A amino acid substitutions, sequence (P01116 1-169 isoform P01116-2 G12C/C118A): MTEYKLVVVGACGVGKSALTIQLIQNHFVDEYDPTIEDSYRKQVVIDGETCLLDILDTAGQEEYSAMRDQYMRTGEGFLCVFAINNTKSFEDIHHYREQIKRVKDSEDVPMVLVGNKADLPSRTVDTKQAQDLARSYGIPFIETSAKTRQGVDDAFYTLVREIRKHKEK

One assay concerns the target GDP-bound KRAS protein (aa 1-169), containing both G12C and C118A amino acid substitutions (Homo sapiens, UniProt P01116, C118A/G12C). The experiment in a line: Coupled Nucleotide Exchange Assay (Table 16 conditions: 5 min pre-incubation). The assay is classed as biochemical. The conditions noted are these: 5 min compound pre-incubation; SOS-mediated nucleotide exchange, AlphaScreen. The protocol:
(§1) For compounds in Table 16, the following assay conditions were employed:
The assay plates were then read on a PerkinElmer EnVision Multilabel Reader, using AlphaScreen® technology, and data were analyzed using a 4-parameter logistic model to calculate IC50 values.
In turn, `C=CC(=O)N1CCN(c2nc(=O)n(-c3ccccc3C(C)(C)C)c3nc(-c4c(O)cccc4F)c(Cl)cc23)[C@@H](C)C1` (single isomer, unassigned) [Example 49-1] gave a 50% inhibitory concentration (IC50) of 2580 nM.
On the same count and under the same terms, under `C=CC(=O)N1CCN(c2nc(=O)n(-c3ccccc3C(C)C)c3nc(-c4ccccc4F)c(Cl)nc23)[C@@H](C)C1` (single isomer, unassigned) [Example 50-1] stands 117 nM; under `C=CC(=O)N1CCN(c2nc(=O)n(-c3ccccc3C(C)C)c3nc(-c4ccccc4F)c(Cl)nc23)[C@@H](C)C1` (single isomer, unassigned) [Example 50-2], 3690 nM.
Compound `C=CC(=O)N1CCN(c2nc(=O)n(-c3ccccc3C(C)C)c3nc(-c4ccccc4F)c(C)nc23)[C@@H](C)C1` (single isomer, unassigned) [Example 51-1] registered an IC50 of 11200 nM.
`C=CC(=O)N1CCN(c2nc(=O)n(-c3ccccc3C(C)C)c3nc(-c4ccccc4F)c(C)nc23)[C@@H](C)C1` (single isomer, unassigned) [Example 51-2] showed an IC50 of 221 nM.
The same measure, in the same setting: under `C=CC(=O)N1CCN(c2nc(=O)n(-c3ccccc3C(C)C)c3nc(-c4c(O)cccc4F)c(C)cc23)[C@@H](C)C1` (single isomer, unassigned) [Example 52-1] stands 5990 nM.
With `C=CC(=O)N1CCN(c2nc(=O)n(-c3ccccc3C(C)C)c3nc(-c4c(O)cccc4F)c(C)cc23)[C@@H](C)C1` (single isomer, unassigned) [Example 52-2], the IC50 was determined as 146 nM.
`C=CC(=O)N1CCN(c2nc(=O)n(-c3c(C)ccnc3C3CC3)c3nc(-c4c(O)cccc4F)c(F)cc23)[C@@H](C)C1` [Example 42-2, 1-(2-cyclopropyl-4-methyl-3-pyridinyl)-6-fluoro-7-(2-fluoro-6-hydroxyphenyl)-4-((2S)-2-methyl-4-(2-propenoyl)-1-piperazinyl)pyrido-[2,3-d]pyrimidin-2(1H)-one] yielded an IC50 of 1560 nM.
Still for that read-out and setting: the result for `C=CC(=O)N1CCN(c2nc(=O)n(-c3ccccc3C(C)C)c3nc(-c4ccccc4F)c(Cl)nc23)[C@@H](C)C1` [Example 50, 6-Chloro-7-(2-fluorophenyl)-4-((2S)-2-methyl-4-(2-propenoyl)-1-piperazinyl)-1-(2-(2-propanyl)phenyl)-2(1H)-pteridinone] reads 276 nM.
For `C=CC(=O)N1CCN(c2nc(=O)n(-c3ccccc3C(C)C)c3nc(-c4c(O)cccc4F)c(C)cc23)[C@@H](C)C1` [Example 52, 7-(2-fluoro-6-hydroxyphenyl)-6-methyl-4-((2S)-2-methyl-4-(2-propenoyl)-1-piperazinyl)-1-(2-(2-propanyl)phenyl)pyrido[2,3-d]pyrimidin-2(1H)-one], the concentration for half-maximal inhibition (IC50) was 338 nM.

The next assay has as its system Phosphorylation of ERK1/2 in MIA PaCa-2 cells. The experiment in a line: Phospho-ERK1/2 MSD Assay, MIA PaCa-2 (Table 16 conditions: 2 hours compound treatment). The format is cell-based. The conditions noted are these: MIA PaCa-2 cells, 10 ng/mL EGF for 10 min, read-out: p-ERK IC50 (MIA PaCa-2). The protocol:
as §1
Sixteen hours prior to compound treatment, MIA PaCa-2 or A549 cells were seeded in 96-well cell culture plates at a density of 25,000 cells/well and incubated at 37° C., 5% CO2. A compound dose-response titration was diluted in growth media, added to appropriate wells of a cell culture plate, and then incubated at 37° C., 5% CO2 for 2 hours. […] Phosphorylation of ERK1/2 in compound-treated lysates was assayed using Phospho-ERK1/2 Whole Cell Lysate kits (Meso Scale Discovery K151DWD) according to the manufacturer's protocol. Assay plates were read on a Meso Scale Discovery Sector Imager 6000, and data were analyzed using a 4-parameter logistic model to calculate IC50 values.
On to `C=CC(=O)N1CCN(c2nc(=O)n(-c3c(C)ccnc3C(C)C)c3nc(-c4c(O)cccc4F)c(F)cc23)[C@@H](C)C1` [Example 41, 6-Fluoro-7-(2-fluoro-6-hydroxyphenyl)-1-(4-methyl-2-(2-propanyl)-3-pyridinyl)-4-((2S)-2-methyl-4-(2-propenoyl)-1-piperazinyl)pyrido[2,3-d]pyrimidin-2(1H)-one], for which the IC50 came to 85 nM.
As for `C=CC(=O)N1CCN(c2nc(=O)n(-c3c(C)ccnc3C(C)C)c3nc(-c4c(O)cccc4F)c(F)cc23)[C@@H](C)C1` [Example 41-1, 6-fluoro-7-(2-fluoro-6-hydroxyphenyl)-1-(4-methyl-2-(2-propanyl)-3-pyridinyl)-4-((2S)-2-methyl-4-(2-propenoyl)-1-piperazinyl)pyrido-[2,3-d]pyrimidin-2(1H)-one], the IC50 was 72 nM.
For `C=CC(=O)N1CCN(c2nc(=O)n(-c3c(C)ccnc3C(C)C)c3nc(-c4c(O)cccc4F)c(F)cc23)[C@@H](C)C1` [Example 41-2, 6-fluoro-7-(2-fluoro-6-hydroxyphenyl)-1-(4-methyl-2-(2-propanyl)-3-pyridinyl)-4-((2S)-2-methyl-4-(2-propenoyl)-1-piperazinyl)pyrido-[2,3-d]pyrimidin-2(1H)-one], the 50% inhibitory concentration (IC50) was determined as 1660 nM.
